US4585773A, “Isoindolinyl-alkyl-piperazines” (Bristol-Myers Company, priority 1984, dated 1986)

Tests used:
[1] = system: α blocking activity (norepinephrine); experiment: in vivo α blocking activity, norepinephrine (NE) as α-agonist (Table III); parameters: species or system rat; conditions: ED50 after/before drug
Procedure: In this example the compounds of Examples I (modified), II, III, V, VI, VII, VIII, IX and XI were tested in rats for in vivo α blocking activity according to methodology described at page 312 of Deitchman, et al., Journal of Pharmacological Methods, 3, 311-321 (1980). In this test phenylephrine (PE below) or norepinephrine (NE below) was administered as an α-agonist to the rats before and after dosing with the test drug and the average interpolated dose or PE/NE effecting a 50 mm Hg increase in mean arterial blood pressure was determined. Table III below records the results. In such Table, ED50 stands for such average interpolated dose and Average Dose Shift stands for the average ratio of ED50 after drug administration to ED50 before drug administration. The compound of Example I was tested as its monochloride 2-propanolate hydrate, i.e. as C22 H27 ClN4 O4 S.HCl 0.2(CH3)2 CHOH.0.15H2 O in Tests 1-5 and as the 3/4 mole hydrochloride, i.e. C22 H27 ClN 4 O4 S.3/4HCL in Tests 2a and 3a. The route was intravenous except in the case of the runs of Test Nos. 2a, 3, 3a, 26-29 the route was oral.

[2] = system: Spontaneously Hypertensive rat; experiment: antihypertensive activity, Spontaneously Hypertensive Rat (Table II); type: in vivo; conditions: for antihypertensive effect (in words): conclusion from Table II (SHR, and DOCA for Examples I-IV)
How it was run: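 Conditioned male SHR (300-400 g), prewarmed at 30° C and restrained; systolic blood pressure and heart rate by tail-cuff before and 2, 4 and 24 h after oral dosing in 0.25% Methocel (5 ml/kg). Values are changes from zero-hour readings; peak ΔBP above 20 mm Hg taken as activity.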

[3] = SHR, 3.0 mg/kg oral, as 3/4 mole hydrochloride
[4] = SHR, 30 mg/kg oral, as 3/4 mole hydrochloride
[5] = SHR, 3.0 to 30 mg/kg body weight

In the case of COc1ccccc1N1CCN(CCCN2Cc3cc(Cl)c(S(N)(=O)=O)cc3C2=O)CC1 [Example I, 6-chloro-2,3-dihydro-2-[3-[4-(2-methoxyphenyl)-1-piperazinyl]propyl]-3-oxo-1H-isoindole-5-sulfonamide], the “Average Dose Shift” value ([1]; dose 0.3, intravenous) was 3 ± 0.3, the “Average Dose Shift” value ([1]; dose 1.0, intravenous) was 11 ± 1 and the “ΔBP 4 hours” value ([2]; SHR, 0.3 mg/kg oral) was -18 ± 6 mm Hg. The “ΔHR 4 hours” value ([2]; SHR, 0.3 mg/kg oral) was 11 ± 3 beats per minute, the “ΔBP 4 hours” value ([2]; SHR, 3.0 mg/kg oral) was -43 ± 7 mm Hg and the “ΔHR 4 hours” value ([2]; SHR, 3.0 mg/kg oral) was 10 ± 15 beats per minute. For the same compound, the “ΔBP 2 hours” value [2, 3] was -23 ± 8 mm Hg, the “ΔBP 4 hours” value [2, 3] was -10 ± 5 mm Hg and the “ΔHR 2 hours” value [2, 3] was 8 ± 10 beats per minute. For the same compound, the “ΔHR 4 hours” value [2, 3] was 14 ± 18 beats per minute, the “ΔBP 2 hours” value ([2]; SHR, 30 mg/kg oral) was -84 ± 10 mm Hg and the “ΔHR 2 hours” value ([2]; SHR, 30 mg/kg oral) was 16 ± 15 beats per minute. For the same compound, the “ΔBP 2 hours” value [2, 4] was -97 ± 10 mm Hg, the “ΔBP 4 hours” value [2, 4] was -52 ± 13 mm Hg and the “ΔHR 2 hours” value [2, 4] was 16 ± 8 beats per minute. The “ΔHR 4 hours” value [2, 4] was 2 ± 9 beats per minute, the “systolic blood pressure / antihypertensive activity (in words)” value [2, 5] was “dose-dependent decrease in systolic blood pressure” and the “time at which antihypertensive effect seen” value [2, 5] was “about two”. For the same compound, the “antihypertensive effect (in words)” value [2] was “good antihypertensive effect without significantly affecting heart rate”.

With COc1ccccc1N1CCN(CCN2Cc3cc(Cl)c(S(N)(=O)=O)cc3C2=O)CC1 [Example III, 6-Chloro-2,3-dihydro-2-[2-[4-(2-methoxyphenyl)-1-piperazinyl]ethyl]-3-oxo-1H-isoindole-5-sulfonamide] the “ΔBP 2 hours” value ([2]; SHR, 30 mg/kg oral) was -47 ± 14 mm Hg, the “ΔBP 4 hours” value ([2]; SHR, 30 mg/kg oral) was -69 ± 20 mm Hg and the “ΔHR 2 hours” value ([2]; SHR, 30 mg/kg oral) was 10 ± 3 beats per minute. The “ΔHR 4 hours” value ([2]; SHR, 30 mg/kg oral) was 10 ± 10 beats per minute and the “antihypertensive effect (in words)” value [2] was “good antihypertensive effect without significantly affecting heart rate”.
